Tested on: SNU-16
Experiment: Western blot analysis of DNA damage (H2A.X Phospho-Ser139)
Format: cell-based
Details: 8 hours, KM4008HV2LV3 10 μg/mL, H2O2 50 μM
Description: Anti-phospho-Histone H2A.X Ser139, clone JBW301 (Millipore Catalog No. 05-636) as a primary antibody and anti-mouse IgG, HRP-linked antibody (CST Catalog No. 7076) as a secondary antibody were used.
SNU-16 was seeded in 10 mL of the assay medium at a density of 2×10^4 cells/mL, and cultured at 37° C. under the conditions of 5% CO2 for 24 hours. Then, KM4008HV2LV3 (final concentration of 10 μg/mL), the solvent solution of antibody, or hydrogen peroxide (H2O2) (final concentration of 50 μM) was added. The cells were left at 37° C. under the conditions of 5% CO2 for 8 hours, and the suspending cells were recovered together with the culture supernatant.
The adherent cells were washed with D-PBS(−) (manufactured by Nacalai Tesque, Catalog No. 14249-95), and then 1.5 mL of TrypLE select (manufactured by Invitrogen, Catalog No. 12563-011) was added and left at 37° C. under the conditions of 5% CO2 for 5 minutes for detachment, and then mixed with the suspending cells recovered in advance to be used in the subsequent manipulations. […]
The cell lysate thus obtained was left on ice for 15 minutes, followed by centrifugation at 15,000 rpm for 15 minutes. The protein concentration in the supernatant thus obtained was determined using a BCA protein assay kit (manufactured by Pierce, Catalog No. 23225). […]

For OO [H2O2, hydrogen peroxide], which “Phosphorylation signals of H2A.X Ser139 (Western blot) compared to solvent-treated cells” value is on record?
Its value is “increased”.
